The values that follow come from publication PMC3111191, “Molecular Evolution of Multiple Arylalkylamine N-Acetyltransferase (AANAT) in Fish” (Marine Drugs, 2011).

One assay deals with AANAT2 (Sparus aurata, UniProt Q68SL6). Kind of assay: radiochemical assay, inhibition of tryptamine acetylation. It counts as biochemical. Conditions: read-out: % inhibition at 50 mM.
The next assay has as its target T1, AANAT1a (Sparus aurata, UniProt Q68SL7).
T1 construct: gene AANAT1
The assay is described as above. It counts as biochemical. As to conditions: read-out: % inhibition at 5 mM.

AANAT2, sequence (Q68SL6 1-205): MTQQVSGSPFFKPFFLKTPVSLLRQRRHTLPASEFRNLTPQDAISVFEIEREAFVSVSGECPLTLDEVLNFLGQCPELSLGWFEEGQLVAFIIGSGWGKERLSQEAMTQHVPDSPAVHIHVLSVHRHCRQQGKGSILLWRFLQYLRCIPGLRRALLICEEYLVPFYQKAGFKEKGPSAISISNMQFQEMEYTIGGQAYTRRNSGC
T1 sequence (Q68SL7 1-202): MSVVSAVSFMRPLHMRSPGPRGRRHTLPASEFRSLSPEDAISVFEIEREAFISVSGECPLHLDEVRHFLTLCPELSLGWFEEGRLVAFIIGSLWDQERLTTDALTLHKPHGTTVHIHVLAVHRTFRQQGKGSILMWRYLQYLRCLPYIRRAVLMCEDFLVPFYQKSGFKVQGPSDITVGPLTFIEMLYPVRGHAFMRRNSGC

As to `NCCc1ccc(O)c(O)c1` [dopamine], the inhibition – broadly, the drop in the measured response relative to a control, in per cent – at 50000 µM on AANAT2 is about 60%. Also, the inhibition at 5000 µM on AANAT1a was about 60%.
